# Measurements: ChEMBL document CHEMBL1126224, “Synthesis and biological activity of 4-(diphenylmethyl)-alpha-[(4-quinolinyloxy)methyl]-1-piperazineethanol and related compounds” (J Med Chem, 1992)
# The source made the active and inactive calls. The rule behind the calls is not given here.
# Key:
# Canis familiaris [1] = assay: The compound was tested for its cardiovascular activity expressed as heart rate in beat/min in anesthetized dogs for a dose of 0.3 mg/kg; format: functional, Canis lupus familiaris
# Rattus norvegicus [2] = species on record: Rattus norvegicus; assay: The compound was tested for its cardiovascular activity in rat heart model. producing a 50% increase (EC50) in CF(coronary flow).; format: functional, organism-based
# Canis familiaris [3] = assay: The compound was tested for its cardiovascular activity in anesthetized dogs producing a 25% increase (EC25) in LV dP/dtmax (measure of contractility) for a dose of 0.3 mg/kg; format: functional, Canis lupus familiaris, Heart
# Rattus norvegicus [4] = species on record: Rattus norvegicus; assay: The compound was tested for its cardiovascular activity in rat heart model. producing a 50% increase (EC50) in LV dP/dtmax (measure of contractility).; format: functional, organism-based
# Canis familiaris [5] = assay: The compound was tested for its cardiovascular activity expressed as heart rate in beat/min in anesthetized dogs for a dose of 1.0 mg/kg; format: functional, Canis lupus familiaris
# Canis familiaris [6] = assay: The compound was tested for its cardiovascular activity in anesthetized dogs producing a 25% increase (EC25) in LV dP/dtmax (measure of contractility) for a dose of 1.0 mg/kg; format: functional, Canis lupus familiaris, Heart
# Canis familiaris [7] = assay: The compound was tested for its cardiovascular activity expressed as heart rate in beat/min in anesthetized dogs for a dose of 0.1 mg/kg; format: functional, Canis lupus familiaris
# Canis familiaris [8] = assay: The compound was tested for its cardiovascular activity in anesthetized dogs producing a 25% increase (EC25) in LV dP/dtmax (measure of contractility) for a dose of 0.1 mg/kg; format: functional, Canis lupus familiaris, Heart
# Canis familiaris [9] = assay: Total peripheral resistance was tested in anesthetized dogs for a dose of 0.3 mg/kg; format: functional, Canis lupus familiaris
# Canis familiaris [10] = assay: Total peripheral resistance was tested in anesthetized dogs for a dose of 0.1 mg/kg; format: functional, Canis lupus familiaris
# Cavia porcellus = species on record: Cavia porcellus; assay: Coronary flow activity in Langendorff perfused guinea pig heart; format: functional
# Rattus norvegicus [11] = species on record: Rattus norvegicus; assay: The compound was tested for its cardiovascular activity in rat heart model. producing a 25% increase (EC25) in LV dP/dtmax (measure of contractility).; format: functional
# Canis familiaris [12] = assay: Mean blood pressure was tested in anesthetized dogs. for a dose of 1.0 mg/kg; format: functional, Canis lupus familiaris
# Canis familiaris [13] = assay: Total peripheral resistance was tested in anesthetized dogs for a dose of 1.0 mg/kg; format: functional, Canis lupus familiaris
# Canis familiaris [14] = assay: Mean blood pressure was tested in anesthetized dogs. for a dose of 0.1 mg/kg; format: functional, Canis lupus familiaris
# Rattus norvegicus [15] = species on record: Rattus norvegicus; assay: The compound was tested for its cardiovascular activity in rat heart model. producing a 25% increase (EC25) in CF(coronary flow).; format: functional
# Oryctolagus cuniculus = species on record: Oryctolagus cuniculus; assay: Calcium channel blocking activity in rabbit aortic rings; format: functional; settings: Aorta
# Canis familiaris [16] = assay: Mean blood pressure was tested in anesthetized dogs. for a dose of 0.3 mg/kg; format: functional, Canis lupus familiaris
# Rattus norvegicus [17] = species on record: Rattus norvegicus; assay: The compound was tested for its cardiovascular activity in rat heart model. producing a 25% increase (EC25) in LV dP/dtmax (measure of contractility); NA = not achieved; format: functional, organism-based
# Rattus norvegicus [18] = species on record: Rattus norvegicus; assay: The compound was tested for its cardiovascular activity in rat heart model. producing a 25% increase (EC25) in LV dP/dtmax (measure of contractility); N = not active; format: functional, organism-based
# Rattus norvegicus [19] = species on record: Rattus norvegicus; assay: (§1) The compound was tested for its cardiovascular activity in rat heart model. producing a 25% increase (EC25) in CF(coronary flow); N = not active; format: functional, organism-based
# Rattus norvegicus [20] = species on record: Rattus norvegicus; assay: as §1; format: functional, organism-based; remark: listed apart in the source
# Rattus norvegicus [21] = species on record: Rattus norvegicus; assay: The compound was tested for its cardiovascular activity in rat heart model. producing a 25% increase (EC50) in CF(coronary flow); NA = not achieved; format: functional, organism-based
# Canis familiaris [22] = assay: The compound was tested for its cardiovascular activity expressed as heart rate in beat/min in anesthetized dogs for a dose of 0.01 mg/kg; format: functional, Canis lupus familiaris
# Canis familiaris [23] = assay: The compound was tested for its cardiovascular activity in anesthetized dogs producing a 25% increase (EC25) in LV dP/dtmax (measure of contractility) for a dose of 0.01 mg/kg; format: functional, Canis lupus familiaris, Heart
# Canis familiaris [24] = assay: Mean blood pressure was tested in anesthetized dogs. for a dose of 0.01 mg/kg; format: functional, Canis lupus familiaris
# Canis familiaris [25] = assay: Total peripheral resistance was tested in anesthetized dogs for a dose of 0.01 mg/kg; format: functional, Canis lupus familiaris
# Rattus norvegicus [26] = species on record: Rattus norvegicus; assay: The compound was tested for its cardiovascular activity in rat heart model. producing a 50% increase (EC50) in LV dP/dtmax (measure of contractility); NA = not achieved; format: functional, organism-based
structure (smiles),measurement,setting,value
N#Cc1cc2c(OCC(O)CN3CCN(C(c4ccccc4)c4ccccc4)CC3)cccc2o1 (configuration not stated),Heart rate,Canis familiaris [1],-1.66 beats min-1
same,EC50,Rattus norvegicus [2],3000 nM
same,Contractility,Canis familiaris [3],9.3 mmHg s-1
same,EC50,Rattus norvegicus [4],420 nM
same,Heart rate,Canis familiaris [5],-3.33 beats min-1
same,Contractility,Canis familiaris [6],30.3 mmHg s-1
same,Heart rate,Canis familiaris [7],0 beats min-1
same,Contractility,Canis familiaris [8],2 mmHg s-1
same,Total peripheral resistance,Canis familiaris [9],-8.66 mmHg·min/mL
same,Total peripheral resistance,Canis familiaris [10],-0.66 mmHg·min/mL
same,EC25,Cavia porcellus,2250 nM
same,EC25,Rattus norvegicus [11],100 nM
same,Mean blood pressure,Canis familiaris [12],-14.5 mmHg
same,Total peripheral resistance,Canis familiaris [13],-21.7 mmHg·min/mL
same,Mean blood pressure,Canis familiaris [14],-0.66 mmHg
same,EC25,Rattus norvegicus [15],100 nM
same,EC25,Oryctolagus cuniculus,> 100000 nM
same,Mean blood pressure,Canis familiaris [16],-7.3 mmHg
OC(COc1cccc2ncccc12)CN1CCN(C(c2ccccc2)c2ccccc2)CC1 (configuration not stated),EC50,Rattus norvegicus [2],2000 nM
same,EC25,Rattus norvegicus [17],inactive
same,EC25,Rattus norvegicus [15],800 nM
OC(COc1ccnc2cc(C(F)(F)F)ccc12)CN1CCN(C(c2ccccc2)c2ccccc2)CC1 (configuration not stated),EC50,Rattus norvegicus [2],400 nM
same,EC25,Rattus norvegicus [15],200 nM
same,EC25,Rattus norvegicus [18],inactive
Cc1cc(OCC(O)Cn2cnc3ccccc32)c2ccccc2n1 (configuration not stated),EC50,Rattus norvegicus [19],Not Active
same,EC25,Rattus norvegicus [18],inactive
OC(COc1cccc2[nH]ccc12)CN1CCN(C(c2ccccc2)c2ccccc2)CC1 (configuration not stated),EC50,Rattus norvegicus [2],2500 nM
same,EC25,Rattus norvegicus [15],120 nM
same,EC25,Rattus norvegicus [18],inactive
OC(COc1cccc2cnccc12)CN1CCN(C(c2ccccc2)c2ccccc2)CC1 (configuration not stated),EC50,Rattus norvegicus [2],1500 nM
same,EC25,Rattus norvegicus [15],200 nM
same,EC25,Rattus norvegicus [18],inactive
Oc1nccc2c(OCC(O)CN3CCN(C(c4ccccc4)c4ccccc4)CC3)cccc12 (configuration not stated),EC25,Rattus norvegicus [15],150 nM
Cc1cc(OCC(O)CN2CCc3ccccc3C2)c2ccccc2n1 (configuration not stated),EC50,Rattus norvegicus [19],Not Active
same,EC25,Rattus norvegicus [18],inactive
Cl.OC(COc1ccc2ncccc2c1)CN1CCN(C(c2ccccc2)c2ccccc2)CC1 (configuration not stated),EC25,Rattus norvegicus [20],inactive
same,EC50,Rattus norvegicus [4],800 nM
same,EC25,Rattus norvegicus [11],480 nM
N#Cc1cc2c(OCC(O)CN3CCN(C(c4ccccc4)c4ccccc4)CC3)cccc2[nH]1 (configuration not stated),EC50,Rattus norvegicus [21],Not Active
same,Heart rate,Canis familiaris [22],0.66 beats min-1
same,EC50,Rattus norvegicus [4],35 nM
same,Heart rate,Canis familiaris [5],-1 beats min-1
same,Contractility,Canis familiaris [23],9 mmHg s-1
same,Contractility,Canis familiaris [6],83.3 mmHg s-1
same,Mean blood pressure,Canis familiaris [24],4.3 mmHg
same,Heart rate,Canis familiaris [7],-0.66 beats min-1
same,Contractility,Canis familiaris [8],21.3 mmHg s-1
same,Total peripheral resistance,Canis familiaris [10],-17.3 mmHg·min/mL
same,EC25,Cavia porcellus,280 nM
same,EC25,Rattus norvegicus [11],20 nM
same,Total peripheral resistance,Canis familiaris [25],-9.6 mmHg·min/mL
same,Mean blood pressure,Canis familiaris [12],-21 mmHg
same,Total peripheral resistance,Canis familiaris [13],-24.5 mmHg·min/mL
same,Mean blood pressure,Canis familiaris [14],2.3 mmHg
same,EC25,Rattus norvegicus [15],300 nM
same,EC25,Oryctolagus cuniculus,> 100000 nM
OC(COc1ccc2cccnc2c1)CN1CCN(C(c2ccccc2)c2ccccc2)CC1 (configuration not stated),EC50,Rattus norvegicus [26],Not Active
same,EC50,Rattus norvegicus [2],1010 nM
same,EC25,Rattus norvegicus [11],700 nM
same,EC25,Rattus norvegicus [15],160 nM
Cc1cc(OCC(O)CN2CCN(C(c3ccccc3)c3ccccc3)CC2)c2ccccc2n1.Cl.O (configuration not stated),EC25,Rattus norvegicus [15],800 nM
OC(COc1ccnc2ccccc12)CN1CCN(C(c2ccccc2)c2ccccc2)CC1 (configuration not stated),Heart rate,Canis familiaris [1],-3.5 beats min-1
same,EC25,Rattus norvegicus [20],inactive
same,Contractility,Canis familiaris [3],40 mmHg s-1
same,EC50,Rattus norvegicus [4],320 nM
same,Heart rate,Canis familiaris [5],-2.6 beats min-1
same,Contractility,Canis familiaris [6],115.5 mmHg s-1
same,Heart rate,Canis familiaris [7],-2 beats min-1
same,Contractility,Canis familiaris [8],12 mmHg s-1
same,Total peripheral resistance,Canis familiaris [9],6.5 mmHg·min/mL
same,Total peripheral resistance,Canis familiaris [10],3 mmHg·min/mL
same,EC25,Cavia porcellus,900 nM
same,EC25,Rattus norvegicus [11],140 nM
same,Mean blood pressure,Canis familiaris [12],3 mmHg
same,Total peripheral resistance,Canis familiaris [13],-17 mmHg·min/mL
same,Mean blood pressure,Canis familiaris [14],3 mmHg
same,EC25,Oryctolagus cuniculus,> 100000 nM
same,Mean blood pressure,Canis familiaris [16],4.5 mmHg
CCOC(=N)c1cc2c(OCC(O)CN3CCN(C(c4ccccc4)c4ccccc4)CC3)cccc2o1 (configuration not stated),EC25,Rattus norvegicus [15],1000 nM
same,EC25,Rattus norvegicus [18],inactive
OC(COc1cccc2cnccc12)CN1CCN(c2ccccc2SCc2ccccc2)CC1 (configuration not stated),EC25,Rattus norvegicus [15],1000 nM
same,EC25,Rattus norvegicus [18],inactive
